Patent publication US20240099989A1, “AGENT FOR PREVENTING OR IMPROVING PERIPHERAL NEUROPATHY” (KINKI UNIVERSITY, priority 2021, published 2024)

System: Diabetic Peripheral Neuropathy in a Mouse Induced by Streptozotocin
Test: Cold plate test (4° C.), diabetic peripheral neuropathy induced by streptozotocin
Type: in vivo, C57BL/6J mice
Settings: time course
Experimental: Six to seven-week-old male C57BL/6J mice were used for the tests as with Example 7. All the mice were acclimated for seven days after arrival. Then, the mice were grouped into the following four groups: a control group, a group receiving streptozotocin, a group receiving 1 mg/kg xylitol, and a group receiving streptozotocin+1 mg/kg xylitol. Each group consisted of nine mice.
The mice in the group receiving 1 mg/kg xylitol were orally administered with xylitol at a dose of 1 mg/kg daily from Day 0. The mice in the group receiving streptozotocin+1 mg/kg xylitol were orally administered with xylitol at a dose of 1 mg/kg daily from Day 21 of administration.
A cold plate test was performed to examine the effect due to xylitol on paresthesia that is caused by a low temperature stimulus. The mice in the four groups described in (1) of the present example (Example 8) were placed on a cold plate set at 4° C., and withdrawal response time (latent time) was measured. It is presumed that a shorter withdrawal response time (latent time) reflects a greater degree of shunning the low temperature stimulus by the cold plate. […]
On Day 8 of acclimation, the mice in the group receiving streptozotocin and the group receiving streptozotocin+5 mg/kg D-threitol were administered with streptozotocin at a dose of 200 mg/kg. A massive dose of streptozotocin destroys pancreatic cells in the mice. As a result, insulin is no longer secreted, and thus, diabetes can be developed in the mice. This day was designated as the first day of the administration (Day 0). Note that streptozotocin was administered only on the first day of administration.
The mice in the group receiving 5 mg/kg D-threitol and the group receiving streptozotocin+5 mg/kg D-threitol were orally administered with D-threitol at a dose of 5 mg/kg daily from Day 0. […]
The mice in the group receiving 5 mg/kg D-threitol were orally administered with D-threitol at a dose of 5 mg/kg daily from Day 0. The mice in the group receiving streptozotocin+5 mg/kg D-threitol were orally administered with D-threitol at a dose of 5 mg/kg daily from Day 21 of administration.
(§1) A cold plate test was performed to examine the effect of D-threitol on paresthesia that is caused by a low temperature stimulus. The mice in the four groups described in (1) of the present example (Example 10) were placed on a cold plate set at 4° C., and withdrawal response time (latent time) was measured. […]
as §1, with “L-talitol” for “D-threitol”, “11)” for “10)”

[1] = streptozotocin 200 mg/kg + 5 mg/kg orally daily from Day 21 (therapy)

| SMILES | withdrawal response time (latent time) [1] | withdrawal response time (latent time) (streptozotocin 200 mg/kg + 1 mg/kg orally daily from Day 21 (therapy)) |
| --- | --- | --- |
| OC[C@@H](O)[C@H](O)CO [D-threitol] | extended from Day 21 onwards |  |
| OC[C@H](O)[C@H](O)[C@H](O)[C@@H](O)CO [L-talitol] | extended from Day 21 onwards |  |
| OC[C@@H](O)[C@H](O)[C@@H](O)CO [xylitol] |  | extended from Day 21 onwards |
